Entries after “also recorded” stand apart in the source; their conditions may differ.
Experiments:
Siglec-7V WT = system: T1, Siglec-7V WT; assay: STD-NMR and 1H-NMR titration; type: binding, human; settings: protein:ligand 1:20, 10 °C, pH 7.9
T1 construct: DNA fragments encoding human Siglec-7 V-set domain (residues 18–144) and the mutants were sub-cloned into the pCold-PDI vector; (His)6-PDI (cleaved yes); made in house; host or cells: Escherichia coli Origami B (DE3)
Experimental: (§1) Recombinant human Siglec-7 V-set domain and its mutants (R67A, R124A, R67K) were prepared using the pCold-PDI vector as previously described with modifications. DNA fragments encoding human Siglec-7 V-set domain (residues 18–144) and the mutants were sub-cloned into the pCold-PDI vector. The plasmids were transformed into Escherichia coli Origami B (DE3) (Novagen), and the cells were grown at 37 °C in LB medium. After induction with isopropyl β-D-thiogalactoside (0.5 mM), the cells were cultured at 15 °C for further 16 h. Then the cells were harvested and sonicated in 20 mM Tris-HCl (pH 8.0), and containing 0.1 M NaCl and 0.1 mM EDTA. After centrifugation, the supernatant containing (His)6-PDI-fused protein was collected and applied to a Ni sepharose column (GE healthcare) equilibrated with 20 mM Tris-HCl (pH 8.0), and containing 0.1 M NaCl. After washing with 20 mM Tris-HCl (pH 8.0) containing 0.1 M NaCl and 20 mM imidazole, the protein was eluted with 20 mM Tris-HCl (pH 8.0) containing 0.1 M NaCl and 500 mM imidazole. The (His)6-PDI-fused protein was extensively dialysed against 50 mM Tris-HCl (pH 8.0) containing 0.1 M NaCl, 5 mM reduced glutathione, 0.5 mM oxidised glutathione, and 10% glycerol. The protein was then digested with TEV protease to remove the (His)6-PDI tag. The digested proteins were passed through the Ni sepharose column and the final purification was performed with a Hiroad Superdex 75 pg size exclusion column (GE healthcare) equilibrated with 20 mM Tris-HCl (pH 8.0) containing 0.1 M NaCl.
(§2) NMR spectra were collected using the DRX-600 (600 MHz) spectrometer (Bruker; Billerica, MA, US) equipped with a TXI-probe. The probe temperature was set at 283 K. Siglec-7 V-set domains (WT, R124A, R67A) were prepared with 10 mM phosphate buffer including 150 mM NaCl in D2O (D: 99%). The final protein concentration before addition of the ligand was 55 μM (pH 7.9). The 5.5 mM diSia and triSia solutions (pH 7.9) in PBS were gradually added into the protein solution to achieve the protein:ligand molar ratios of 1:0, 1:1, 1:2, 1:5, 1:10, and 1:20; the ^1H-NMR spectra were obtained with the WATERGATE pulse sequence in each protein:ligand ratio. Data were collected for 1024 scans by suppressing the residual HDO signal to 3-9-19 pulse train. Saturation Transfer Difference (STD) NMR experiments were performed at the protein:ligand ratio of 1:20. The protein signal was saturated on resonance at 0.15 ppm and off resonance at 40 ppm with a cascade of 60 selective Gaussian shaped pulses of 50 ms duration and 3 s saturation in total. The WATERGATE pulse sequence was used to suppress the residual HDO signal, and a spin-lock filter with a strength of 8 kHz and a duration of 10 ms was applied to suppress protein background signal. All STD NMR experiments were collected for 1024 scans with an inter pulse delay of 100 μs. The Sias signal assignments have been previously described by Jennings et al.[34].

Siglec-7V R124A = system: T2, Siglec-7V R124A; assay: STD-NMR and 1H-NMR titration; type: binding, human; settings: protein:ligand 1:20, 10 °C, pH 7.9
T2 construct: DNA fragments encoding human Siglec-7 V-set domain (residues 18–144) and the mutants were sub-cloned into the pCold-PDI vector; (His)6-PDI (cleaved yes); made in house; host or cells: Escherichia coli Origami B (DE3)
Experimental: as §1, §2

Siglec-7V R67A = system: T3, Siglec-7V R67A; assay: STD-NMR and 1H-NMR titration; type: binding, human; settings: protein:ligand 1:20, 10 °C, pH 7.9
T3 construct: DNA fragments encoding human Siglec-7 V-set domain (residues 18–144) and the mutants were sub-cloned into the pCold-PDI vector; (His)6-PDI (cleaved yes); made in house; host or cells: Escherichia coli Origami B (DE3)
Experimental: as §1, §2

[1] = molecular target: T4, GD3-Siglec-7EcFc interaction (Homo sapiens, UniProt Q9Y286); assay: Inhibition of GD3-Siglec-7EcFc binding (ELISA, double reciprocal plots); settings: for Inhibition type: double reciprocal plots
T4 construct: the extracellular domain of Siglec-7 fused with the human IgG1 Fc region; made in house
Experimental: (§3) For ganglioside binding assay, 96-well plates (Nunc, Roskilde, Denmark) were coated with 50 μL/well of 0–6.0 µM ganglioside in ethanol and left to air dry overnight or at 37 °C for 2 h. The wells were washed three times with TBS and blocked with 1% BSA (w/v) in TBS. Siglec-7-Fc fusion protein (64 pmol/mL) was pre-complexed with a 1/1000 dilution of horseradish peroxidase-conjugated goat anti-human IgG + M + A (American Qualex) for 30 min at room temperature, and 50 μL of reaction mixture was added to each well. After 2 h incubation at room temperature, the wells were washed extensively, then 100 µL of 0.05% o-phenylenediamine in 0.1 M Tris-HCl (pH 6.8) containing 0.006% H2O2 was added and incubated at room temperature. The absorbance was then measured at 490 nm (Bio-Rad, Hercules, CA) after the addition of 100 µL of 2 N sulphuric acid. For measurement of the inhibition toward GD3-Siglec-7 interaction, inhibitors (0–200 μM for octyl-α2,8-mono/di/tri/teraSia, 0–50 μM for tetradecyl-ganglioside glycan), Siglec-7, and peroxidase conjugated anti-human IgG + IgM + IgA were pre-incubated at 25 °C for 30 min, and the reaction mixture with or without inhibitor was used as described above. All experiments were performed three times.

Siglec-7EcFc (R67K) = system: T5, Siglec-7EcFc (R67K); assay: ELISA binding of Siglec-7EcFc to immobilised gangliosides / (Neu5Ac)n-PE; parameters: species or system human; settings: ligand coated on plastic wells, compared with WT
T5 construct: the extracellular domain of Siglec-7 fused with the human IgG1 Fc region; made in house
Experimental: as §3

Siglec-7EcFc (WT) = system: T6, Siglec-7EcFc (WT); assay: as above; parameters: species or system human; settings: ligand coated on plastic wells
T6 construct: the extracellular domain of Siglec-7 fused with the human IgG1 Fc region; made in house
Experimental: as §3

Siglec-7EcFc (R67A) = system: T7, Siglec-7EcFc (R67A); assay: as above; parameters: species or system human; settings: ligand coated on plastic wells, compared with WT
T7 construct: the extracellular domain of Siglec-7 fused with the human IgG1 Fc region; made in house
Experimental: as §3

Siglec-7EcFc (R92K) = system: T8, Siglec-7EcFc (R92K); assay: as above; parameters: species or system human; settings: ligand coated on plastic wells, compared with WT
T8 construct: the extracellular domain of Siglec-7 fused with the human IgG1 Fc region; made in house
Experimental: as §3

Siglec-7EcFc (R92A) = system: T9, Siglec-7EcFc (R92A); assay: as above; parameters: species or system human; settings: ligand coated on plastic wells, compared with WT
T9 construct: the extracellular domain of Siglec-7 fused with the human IgG1 Fc region; made in house
Experimental: as §3

T4 sequence (Q9Y286 19-353 limits assumed): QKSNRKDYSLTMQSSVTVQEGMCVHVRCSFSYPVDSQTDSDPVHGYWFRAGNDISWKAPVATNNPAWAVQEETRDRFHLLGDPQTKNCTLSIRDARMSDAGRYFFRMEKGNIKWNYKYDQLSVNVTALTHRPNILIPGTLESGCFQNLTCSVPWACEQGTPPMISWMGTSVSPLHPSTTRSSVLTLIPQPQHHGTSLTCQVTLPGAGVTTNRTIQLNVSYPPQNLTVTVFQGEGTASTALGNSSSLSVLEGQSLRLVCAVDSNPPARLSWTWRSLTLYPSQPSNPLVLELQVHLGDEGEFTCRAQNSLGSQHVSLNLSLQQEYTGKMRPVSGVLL

Compound | binding in solution (STD-NMR) (Siglec-7V WT) | binding in solution (STD-NMR) (Siglec-7V R124A) | binding in solution (STD-NMR) (Siglec-7V R67A) | Inhibition type [1] | binding activity (ELISA) (Siglec-7EcFc (WT)) | further results
CC(=O)NC1C(O)CC(OC(CO)C(O)C2OC(O)(C(=O)O)CC(O)C2NC(C)=O)(C(=O)O)OC1C(O)C(O)CO (stereo not shown) [diSia, Neu5Acα(2-8)Neu5Ac-OH] | obviously recognised | very little or no interactions | obviously recognised | – | – | –
CC(=O)NC1C(O)CC(OC(CO)C(O)C2OC(OC(CO)C(O)C3OC(O)(C(=O)O)CC(O)C3NC(C)=O)(C(=O)O)CC(O)C2NC(C)=O)(C(=O)O)OC1C(O)C(O)CO (stereo not shown) [triSia, Neu5Acα(2-8)Neu5Acα(2-8)Neu5Ac-OH] | involved in binding | very little or no interactions | involved in binding | – | – | –
CCCCCCCCOC1(C(=O)O)CC(O)C(NC(C)=O)C(C(O)C(CO)OC2(C(=O)O)CC(O)C(NC(C)=O)C(C(O)C(O)CO)O2)O1 (stereo not drawn) [α2,8-diSia] | – | – | – | competitive inhibition | – | inhibition activity toward Siglec-7EcFc-GD3 interaction ([1]; octyl glycosides, 0–200 μM): the effect was weak
CCCCCCCCOC1(C(=O)O)CC(O)C(NC(C)=O)C(C(O)C(CO)OC2(C(=O)O)CC(O)C(NC(C)=O)C(C(O)C(CO)OC3(C(=O)O)CC(O)C(NC(C)=O)C(C(O)C(O)CO)O3)O2)O1 (stereo not drawn) [α2,8-triSia] | – | – | – | non-competitive inhibition | – | IC50 ([1]; octyl glycosides, 0–200 μM, GD3-coated plate): < 100 µM
Neu5Acα2 → 8Neu5Aα2 → 3Galβ1 → 4Glc-Cer [GD3] | – | – | – | – | higher binding activity | binding activity (ELISA) (Siglec-7EcFc (R67K)): significantly lower binding activity; binding activity (ELISA) (Siglec-7EcFc (R67A)): significantly lower binding activity; also recorded: did not effectively bind; binding activity (ELISA) (Siglec-7EcFc (R92K)): almost the same binding activity; binding activity (ELISA) (Siglec-7EcFc (R92A)): almost the same binding activity
Neu5Aα2 → 3Galβ1 → 4Glc-Cer [GM3] | – | – | – | – | Almost no binding activity | –
